Test results published in patent US20260167622A1, “PAN-KRAS DEGRADING AGENT, AND PREPARATION METHOD THEREFOR AND USE THEREOF” (LEADINGTAC PHARMACEUTICAL (SHAOXING) CO., LTD., priority 2022, published 2026).

Experiments:
Assay type in all cases: cell-based
[1] = target: T1, KRAS G12V protein in SW900 cells (Homo sapiens, UniProt P01116, G12V); test: KRAS degradation assay (Western Blot) in SW900 cells; conditions: 24 h
T1 construct: endogenous in cells; host or cells: SW900
Source text: (§1) Test Example 5: KRAS G12C, KRAS G12D, KRAS G12V, KRAS G13D, and KRAS WT (Expanded) Degradation Assays
(§2) The degradation effect of the compounds on KRAS was investigated on KRAS G12C mutant human non-small cell lung cancer cell NCI-H358, KRAS G12D mutant human metastatic pancreatic cancer cell AsPc-1, KRAS G12D mutant human lung cancer cell A427, KRAS G12V mutant human colorectal cancer cell SW620, KRAS G12V mutant human lung cancer cell SW900, KRAS G13D mutant human colorectal cancer epithelial cell DLD-1, and KRAS WT human gastric cancer cell MKN-1. The specific procedures were as follows: 0.95 mL of cells were seeded into each well of a 24-well cell culture plate to achieve a cell density of 5×10^5 cells/well; and the cell plate was incubated in an incubator at 37° C. with 5% CO2 overnight. Then 50 μL of the compound solution after dilution was added to each of the wells with the corresponding cells, so that the final concentration of the compound was in a range of 0.03-3000 nM. The final concentration of DMSO was 0.25%. After the compounds were added, the cell plate was incubated in an incubator at 37° C. with 5% CO2 for 24 h. The culture medium in the 24-well cell culture plate was then removed, and the plate was washed twice with 1×PBS (KeyGEN). 120 μL of RIPA (strong) lysis buffer (Beyotime) (supplemented with 1 mM phenylmethylsulfonyl fluoride, a protease inhibitor mixture (Beyotime), and a protease phosphatase inhibitor mixture (Beyotime)) was added to lyse adherent SW900 cells at the bottom of the cell culture plate. After the plate was left to stand on ice for 30 min, the protein lysate in each well was transferred to a 1.5 mL centrifuge tube and centrifuged at 15000 g for 20 min at 4° C. The cell lysate supernatants after centrifugation were cryopreserved in a refrigerator at −80° C. for later use.
(§3) After the samples of the cell lysate supernatants that had been prepared were thawed from the refrigerator at −80° C., the total protein concentrations of the cell lysates were determined using a BCA protein quantification kit (Tiangen). The total protein concentrations of the samples were then adjusted to 0.5 μg/μL with PBS and 5×SDS-PAGE protein loading buffer (Beyotime), and the samples were incubated in a water bath at 100° C. for 15 min. The samples were then incubated in an ice bath for 5 min and centrifuged at 14000 g for 1 min at 4° C., and the supernatants were mixed well as loading samples for the Western Blot assay. The samples were loaded into wells of a 10% precast gel (KeyGEN) with a loading volume of 10 μL (total protein: 5 μg), a sufficient Tris-MOPS-SDS running buffer (Adamas) was added, and then electrophoresis was performed at a constant voltage of 120 V for 55 min. After the electrophoresis, the proteins on the gel were transferred to PVDF membranes at a constant current of 250 mA for 55 min. After the membrane transfer, the PVDF membranes were incubated in 1× Quick Block blocking buffer (Beyotime)at room temperature for 30 min. After the blocking, the PVDF membranes were separately incubated at 4° C. overnight with the KRAS antibody (Abcam) diluted in a ratio of 1:1000 and the β-actin antibody (Abcam) diluted in a ratio of 1:2000 in 5% BSA as the diluent, and then washed with 1×TBST buffer (2.4 g of Tris, 8.8 g of NaCl, 1.5 mL of Tween 20, with pH adjusted to 7.4, with the volume brought to 1 L) 3 times for 10 min/time. The membranes were incubated with a secondary antibody (Abcam) diluted in 5% BSA at room temperature for 2 h, and then washed with 1×TBST buffer 3 times for 10 min/time. Finally, the membranes were incubated with Clarity Western ECL Substrate (BIO-RAD) for 5 min for luminescence and color development, and a ChemiScope 6200 Touch chemiluminescence imaging system (Clinx) was used for color development and protein mapping. Gray value analysis of the protein maps was performed using the chemiluminescence analysis software (Clinx). […]

[2] = test system: KRAS G12D mutant human metastatic pancreatic cancer cell AsPc-1; test: 3D cell proliferation inhibition assay, AsPc-1; conditions: ASPC1, 168 h, 3D culture, 7 days, CTG
Source text: (§4) Test Example 6: 3D Cell Proliferation Inhibition Assay
(§5) The inhibitory effects of the compounds on 3D cell proliferation were investigated on KRAS G12C mutant human non-small cell lung cancer cell NCI-H358, KRAS G12D mutant human lung cancer cell A427, KRAS G12D mutant human gastric cancer cell AGS, KRAS G12D mutant human metastatic pancreatic cancer cell AsPc-1, KRAS G12V mutant human lung squamous carcinoma cell SW900, KRAS G12V mutant human colorectal cancer cell SW620, KRAS G13D mutant human colorectal cancer epithelial cell DLD-1, and KRAS WT human gastric cancer cell MKN1. The specific procedures were as follows:
(§6) 10 μL of each compound solution diluted in a gradient was added to corresponding wells of a 96-well low-adsorption microplate (PerkinElmer), so that the final concentrations of the test compounds in the reaction system were in a range of 10000-0.026 nM. The final concentration of DMSO was 0.2%. Then 90 µL of cells were correspondingly seeded into each well to achieve a cell density of 5×10^2 cells/well (the cell density of SW900 was 5×10^3 cells/well, and the cell density of MKN1 was 1×10^3 cells/well). In addition to test wells for the test compounds, both a DMSO control well and a medium control well were set, with the DMSO control well containing DMSO and cells and the medium well containing only a medium. After the sample loading, the 96-well low-adsorption microplate was incubated in an incubator at 37° C. with […] for 7 days. After 7 days, the microplate was taken out, and 100 μL of CTG reagent (Promega) was added to each well. The plate was incubated at room temperature for 60 m and read on a microplate reader EnVision by the chemiluminescence program. The inhibition rates of the compounds at each concentration were calculated using the formula for the percentage inhibition of cell proliferation: inhibition rate 00=(mean value of DMSO control group−single concentration reading value of compound)/(mean value of DMSO control group−mean value of medium control group)×100. Then non-linear curve fillings for logarithmic concentration-inhibition rate were performed by GraphPad Prism 8, and the IC50 values of the compounds were obtained (Table 6).

[3] = test system: KRAS G12V mutant human lung squamous carcinoma cell SW900; test: 3D cell proliferation inhibition assay, SW900; conditions: SW900, 168 h, 3D culture, 7 days, CTG
Source text: as §4, §5, §6

[4] = test system: KRAS WT human gastric cancer cell MKN1; test: 3D cell proliferation inhibition assay, MKN1; conditions: MKN-1, 168 h, 3D culture, 7 days, CTG
Source text: as §4, §5, §6

[5] = target: T2, KRAS G12V protein in SW620 cells (Homo sapiens, UniProt P01116, G12V); test: KRAS degradation assay (Western Blot) in SW620 cells; conditions: for DC50: 24 h; for Dmax: SW-620, 24 h
T2 construct: endogenous in cells; host or cells: SW620
Source text: as §1, §2, §3

[6] = test system: KRAS G12C mutant human non-small cell lung cancer cell NCI-H358; test: 3D cell proliferation inhibition assay, NCI-H358; conditions: NCI-H358, 168 h, 3D culture, 7 days, CTG
Source text: as §4, §5, §6

[7] = test system: KRAS G12V mutant human colorectal cancer cell SW620; test: 3D cell proliferation inhibition assay, SW620; conditions: SW-620, 168 h, 3D culture, 7 days, CTG
Source text: as §4, §5, §6

[8] = test system: KRAS G13D mutant human colorectal cancer epithelial cell DLD-1; test: 3D cell proliferation inhibition assay, DLD-1; conditions: DLD-1, 168 h, 3D culture, 7 days, CTG
Source text: as §4, §5, §6

T2 sequence (P01116 1-188 isoform P01116-2 G12V): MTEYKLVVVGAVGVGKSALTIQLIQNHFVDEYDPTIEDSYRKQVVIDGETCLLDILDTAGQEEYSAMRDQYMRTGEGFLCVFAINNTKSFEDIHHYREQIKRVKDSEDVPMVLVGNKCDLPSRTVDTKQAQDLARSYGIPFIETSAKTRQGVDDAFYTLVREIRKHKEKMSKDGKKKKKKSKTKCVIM
T1 sequence (P01116 1-188 isoform P01116-2 G12V): as above

SMILES	DC50 [1]	Dmax [1]	IC50 [2]	IC50 [3]	IC50 [4]	DC50 [5]	Dmax [5]	IC50 [6]	IC50 [7]	IC50 [8]
C#Cc1cccc2cc(O)cc(-c3ncc4c(N5CCC[C@@](C)(O)C5)nc(OCC5(CN6CCC(CCOCC7CCN(C(=O)c8ccc(OC)c(N9CCC(=O)NC9=O)c8)CC7)CC6)CC5)nc4c3F)c12 [Example 38, (R)-1-(5-(4-((2-(1-((1-(((7-(8-ethynyl-3-hydroxynaphthalen-1-yl)-8-fluoro-4-(3-hydroxy-3-methylpiperidin-1-yl)pyrido[4,3-d]pyrimidin-2-yl)oxy)methyl)cyclopropyl)methyl)piperidin-4-yl)ethoxy)methyl)piperidine-1-carbonyl)-2-methoxyphenyl)dihydropyrimidine-2,4(1H,3H)-dione]	≤ 50 nM	80 to 100%	50 to 100 nM	100 to 500 nM	≤ 50 nM					
C#Cc1c(F)ccc2cc(O)cc(-c3ncc4c(N5CCC[C@@](C)(O)C5)nc(OCC5(CN6CCN(CCC#CC7CCN(C(=O)c8ccc(Cl)c(N9CCC(=O)NC9=O)c8)CC7)CC6)CC5)nc4c3F)c12 [Example 43, (R)-1-(2-chloro-5-(4-(4-(4-((1-(((7-(8-ethynyl-7-fluoro-3-hydroxynaphthalen-1-yl)-8-fluoro-4-(3-hydroxy-3-methylpiperidin-1-yl)pyrido[4,3-d]pyrimidin-2-yl)oxy)methyl)cyclopropyl)methyl)piperazin-1-yl)but-1-yn-1-yl)piperidine-1-carbonyl)phenyl)dihydropyrimidine-2,4(1H,3H)-dione]	≤ 50 nM	80 to 100%	50 to 100 nM	≤ 50 nM	50 to 100 nM					
C#Cc1c(F)ccc2cc(O)cc(-c3ncc4c(N5CCCCCC5)nc(OCC5(CN6CCN(CC7CCC8(CC7)CCN(C(=O)c7ccc(C)c(N9CCC(=O)NC9=O)c7)CC8)CC6)CC5)nc4c3F)c12 [Example 37, 1-(5-(9-((4-((1-(((4-(azepan-1-yl)-7-(8-ethynyl-7-fluoro-3-hydroxynaphthalen-1-yl)-8-fluoropyrido[4,3-d]pyrimidin-2-yl)oxy)methyl)cyclopropyl)methyl)piperazin-1-yl)methyl)-3-azaspiro[5.5]undecane-3-carbonyl)-2-methylphenyl)dihydropyrimidine-2,4(1H,3H)-dione]			100 to 500 nM	≤ 50 nM	≤ 50 nM					
C#Cc1c(F)ccc2cc(O)cc(-c3ncc4c(N5CCC[C@@](C)(O)C5)nc(OCC(C)CN5CCN(CC6CCC7(CC6)CCN(C(=O)c6ccc(OC)c(N8CCC(=O)NC8=O)c6)CC7)CC5)nc4c3F)c12 (stereo partly drawn) [Example 86, 1-(5-(9-((4-(3-((7-(8-ethynyl-7-fluoro-3-hydroxynaphthalen-1-yl)-8-fluoro-4-((R)-3-hydroxy-3-methylpiperidin-1-yl)pyrido[4,3-d]pyrimidin-2-yl)oxy)-2-methylpropyl)piperazin-1-yl)methyl)-3-azaspiro[5.5]undecane-3-carbonyl)-2-methoxyphenyl)dihydropyrimidine-2,4(1H,3H)-dione]			21.2 nM		5.23 nM	14.2 nM	89.2%	6.63 nM	7.01 nM	9.98 nM
C#Cc1c(F)ccc2cc(O)cc(-c3ncc4c(N5CCCC(F)(F)C5)nc(OCC5(CN6CCN(CC7CCC8(CC7)CCN(C(=O)c7ccc(OC)c(N9CCC(=O)NC9=O)c7)CC8)CC6)CC5)nc4c3F)c12 [Example 72, 1-(5-(9-((4-((1-(((4-(3,3-difluoropiperidin-1-yl)-7-(8-ethynyl-7-fluoro-3-hydroxynaphthalen-1-yl)-8-fluoropyrido[4,3-d]pyrimidin-2-yl)oxy)methyl)cyclopropyl)methyl)piperazin-1-yl)methyl)-3-azaspiro[5.5]undecane-3-carbonyl)-2-methoxyphenyl)dihydropyrimidine-2,4(1H,3H)-dione]			176 nM		102 nM	11.8 nM	95.2%	32.9 nM	22 nM	54.3 nM
C#Cc1c(F)ccc2cc(O)cc(-c3ncc4c(N5CCC[C@@](C)(O)C5)nc(OC[C@H](C)CN5CCN(CC6CCC7(CC6)CCN(C(=O)c6cc(N8CCC(=O)NC8=O)c(C)cc6F)CC7)CC5)nc4c3F)c12 [Example 162, 1-(5-(9-((4-((R)-3-((7-(8-ethynyl-7-fluoro-3-hydroxynaphthalen-1-yl)-8-fluoro-4-((R)-3-hydroxy-3-methylpiperidin-1-yl)pyrido[4,3-d]pyrimidin-2-yl)oxy)-2-methylpropyl)piperazin-1-yl)methyl)-3-azaspiro[5.5]undecane-3-carbonyl)-4-fluoro-2-methylphenyl)dihydropyrimidine-2,4(1H,3H)-dione]			19.9 nM			21.7 nM	100%	3.83 nM	4.85 nM	12.8 nM
